Read-outs that look alike come from different tables or passages of the source.
What was measured:
5-HT7R [1] = molecular target: T1, 5-HT7R (Homo sapiens, UniProt P34969); test: Radioligand binding assay, [3H]-5-CT displacement; settings: mean ± SD from two independent measurements; read-out: Ki 5-HT7
Protocol: (§1) Cell pellets were thawed and homogenized in 10 vol of assay buffer using an Ultra Turrax tissue homogenizer and centrifuged twice at 35 000 g for 15 min at 4 °C, with incubation for 15 min at 37 °C in between. The composition of the assay buffers was as follows: for 5-HT1AR: 50 mM Tris HCl, 0.1 mM EDTA, 4 mM MgCl2, 10 μM pargyline and 0.1% ascorbate; for 5-HT2AR: 50 mM Tris HCl, 0.1 mM EDTA, 4 mM MgCl2 and 0.1% ascorbate; for 5- HT7bR: 50 mM Tris HCl, 4 mM MgCl2, […] and 0.1% ascorbate; and for dopamine D2LR: 50 mM Tris HCl, 1 mM EDTA, 4 mM MgCl2, 120 mM NaCl, 5 mM KCl, 1.5 mM CaCl2 and 0.1% ascorbate. All assays were incubated in a total volume of […] in 96-well microtiter plates for 1 h at 37 °C, except 5-HT2AR which was incubated at 27 °C. The process of equilibration was terminated by rapid filtration through Unifilter plates with a 96-well cell harvester, and radioactivity retained on the filters was quantified on a Microbeta plate reader (PerkinElmer, USA). For displacement studies, the assay samples contained as radioligands (PerkinElmer, USA): 2.5 nM [^3H]-8-OH-DPAT (135.2 Ci/mmol) for 5-HT1AR; 1 nM [3H]-ketanserin (53.4 Ci/mmol) for 5- HT2AR; 0.8 nM [3H]-5- CT (39.2 Ci/mmol) for 5-HT7R or 2.5 nM [3H]-raclopride (72 Ci/mmol) for D2LR. Nonspecific binding was defined with […] of 5-HT in 5-HT7R binding experiments, whereas […] were used in 5-HT2AR and D2L assays, respectively. Each compound was tested in triplicate at 7 concentrations (10^–10–10^–4 M). The inhibition constants (Ki) were calculated using the Cheng–Prusoff equation.[48] Results were expressed as means of at least two separate experiments.

locomotor activity = test: Spontaneous locomotor activity in mice; type: in vivo
Protocol: (§2) The behavioral experiments were performed on male BalbC mice weighing 20–25 g, n = 333. The animals were purchased from the Animal House at the Faculty of Pharmacy, Jagiellonian University Medical College, Krakow, Poland. Mice were kept in groups of ten in Makrolon type 3 cages (dimensions 26.5 × 15 × 42 cm). The animals were kept in an environmentally controlled room (ambient temperature 22 ± 2 °C; relative humidity 50–60%; 12:12 light: dark cycle; and lights on at 8:00). They were allowed to acclimatize with the environment enriched by nesting material, tooth grinding material, houses, and toys for 1 week before commencement of the experiments. During acclimatization, mice were accustomed to the presence of female experimenters and their appropriate manner of animals’ restraint, i.e., cupping each separate mouse in open hands, according to the 3Rs recommendations (handling).[50],[51] Standard laboratory food (Sniff M-Z) and filtered water were freely available. All the experiments were conducted in the light phase between 9 AM and 2 PM. Experimental groups consisted of 6–10 randomly selected animals, depending on the experiment, and each animal was used only once. The experiments were performed by an observer who was unaware of the treatment administered. All the experimental procedures with mice were carried out under EU Directive 2010/63/EU and were approved by the Local Ethics Commission for Animal Experiments of Jagiellonian University in Krakow (Approval nos.:297/2019).
(§3) Compounds were injected once intraperitoneally (i.p.) 60 min before tests, at a volume of 10 mL/kg. Control animals received a vehicle injection according to the same schedule.
Locomotor activity was recorded with an Opto M3 multichannel activity monitor (Columbus Instruments, Columbus, USA). […] According to the 3Rs recommendations,[54] locomotor activity was assessed for the minimal active doses obtained in FST and/or FPT to ensure that detected antidepressant-/anxiolytic-like effects are not the result of increased motility of mice.

punished crossings = test: Four-plate test (FPT) in mice; type: in vivo
Protocol: as §2, §3
The four-plate apparatus (Bioseb, Pinellas Park, USA) was used for tests. Following a 15 s habituation period, the animal’s motivation to explore a novel environment is suppressed by an electric foot shock (0.8 mA, 0.5 s) every time it moves from one plate to another during a 1 min test session. This action is referred to as a “punished crossing” and is followed by a 3 s shock interval, during which the animal can move across plates without receiving a shock.[53]

dopamine D2LR = dopamine D2LR (Homo sapiens, UniProt P14416); test: Radioligand binding assay, [3H]-raclopride displacement; settings: mean ± SD from two independent measurements; read-out: Ki D2
Protocol: as §1

5-HT1AR = molecular target: T2, 5-HT1AR (Homo sapiens, UniProt P08908); test: Radioligand binding assay, [3H]-8-OH-DPAT displacement; settings: mean ± SD from two independent measurements; read-out: Ki 5-HT1A
T2 sequence (P08908 1-422): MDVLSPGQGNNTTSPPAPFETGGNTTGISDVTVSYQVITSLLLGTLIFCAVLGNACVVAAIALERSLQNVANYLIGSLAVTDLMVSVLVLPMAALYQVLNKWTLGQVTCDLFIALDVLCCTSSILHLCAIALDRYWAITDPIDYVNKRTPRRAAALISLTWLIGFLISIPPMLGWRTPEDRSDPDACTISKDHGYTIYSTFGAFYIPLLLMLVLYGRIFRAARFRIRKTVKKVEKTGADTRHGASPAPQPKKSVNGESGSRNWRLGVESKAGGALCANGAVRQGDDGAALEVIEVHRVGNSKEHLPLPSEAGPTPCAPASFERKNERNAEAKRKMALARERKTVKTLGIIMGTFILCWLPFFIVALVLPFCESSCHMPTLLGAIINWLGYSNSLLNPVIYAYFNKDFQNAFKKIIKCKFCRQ
Protocol: as §1

immobility time = test: Forced swim test (FST, Porsolt's test) in mice; type: in vivo; settings: 60 min before test
Protocol: as §2, §3
The FST experiment was carried out according to the method of Porsolt et al.[52] The total duration of immobility was recorded during the last 4 min of this 6 min period. The reduction of immobility time compared to the control was a measure of antidepressant properties of the tested compound. A mouse was regarded as immobile when it remained floating on water, making only small movements to keep its head above it.

5-HT7R [2] = molecular target: T1, 5-HT7R; design: method as in PMID 29439902, PMID 29425815, PMID 28886235, PMID 26900658; settings: earlier results for the racemic hits; read-out: 5-HT7R Ki of reference hit compounds; cited from earlier work

T1 sequence (P34969 1-432): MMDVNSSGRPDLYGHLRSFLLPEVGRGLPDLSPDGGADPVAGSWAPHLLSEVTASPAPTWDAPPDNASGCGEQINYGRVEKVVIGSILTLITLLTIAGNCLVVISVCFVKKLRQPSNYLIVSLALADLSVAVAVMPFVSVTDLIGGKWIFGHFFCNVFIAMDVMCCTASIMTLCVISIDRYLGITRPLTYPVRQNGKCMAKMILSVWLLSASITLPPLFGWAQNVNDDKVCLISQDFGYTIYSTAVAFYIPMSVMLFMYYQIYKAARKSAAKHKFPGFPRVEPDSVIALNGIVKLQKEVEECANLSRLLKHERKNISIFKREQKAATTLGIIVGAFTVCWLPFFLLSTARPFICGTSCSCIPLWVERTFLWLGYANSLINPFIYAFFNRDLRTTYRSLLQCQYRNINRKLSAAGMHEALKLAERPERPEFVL
Chain of dopamine D2LR (P14416 whole entry): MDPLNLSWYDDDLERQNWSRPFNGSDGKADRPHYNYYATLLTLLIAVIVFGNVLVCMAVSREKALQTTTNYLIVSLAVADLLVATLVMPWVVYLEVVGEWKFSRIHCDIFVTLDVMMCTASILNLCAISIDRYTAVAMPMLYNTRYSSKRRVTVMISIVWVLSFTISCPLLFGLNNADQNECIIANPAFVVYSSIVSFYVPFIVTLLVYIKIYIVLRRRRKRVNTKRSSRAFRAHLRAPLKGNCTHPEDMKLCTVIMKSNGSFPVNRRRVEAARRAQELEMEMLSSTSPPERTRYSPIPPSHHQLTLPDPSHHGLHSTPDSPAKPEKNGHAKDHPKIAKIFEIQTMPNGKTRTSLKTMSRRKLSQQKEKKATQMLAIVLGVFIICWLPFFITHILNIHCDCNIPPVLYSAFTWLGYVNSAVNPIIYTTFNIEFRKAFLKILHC

Q: Which results are given for `CC1(c2ccc(F)cc2)NC(=O)N(CC(O)CN2CCN(C(c3ccccc3)c3ccccc3)CC2)C1=O` (centres unmarked) [Compound 2]?
A: Ki (5-HT7R [1]): 79 ± 6 nM; locomotor activity number of crossings ± SEM during 3–6 min (locomotor activity; 0.312 mg/kg i.p.): 108.00 ± 42.04; NS; locomotor activity number of crossings ± SEM during 1 min (locomotor activity; 0.312 mg/kg i.p.): 9.75 ± 5.45; NS; locomotor activity number of crossings ± SEM during 60 min (locomotor activity; 0.312 mg/kg i.p.): 702.75 ± 122.53; NS; locomotor activity number of crossings ± SEM during 3–6 min (locomotor activity; 2.5 mg/kg i.p.): 211.50 ± 29.38; NS; locomotor activity number of crossings ± SEM during 1 min (locomotor activity; 2.5 mg/kg i.p.): 16.50 ± 6.12; NS; locomotor activity number of crossings ± SEM during 60 min (locomotor activity; 2.5 mg/kg i.p.): 2482.75 ± 587.23; NS; increase of number of punished crossings (punished crossings; 2.5 mg/kg i.p.): 62%; increase of number of punished crossings vs vehicle (punished crossings; i.p., active doses): about 60%; Ki (dopamine D2LR): 261 ± 38 nM; Ki (5-HT1AR): 5570 ± 1410 nM; decrease of immobility time vs vehicle (immobility time; 0.312 mg/kg i.p.): 25%; decrease of immobility time vs vehicle (immobility time; 0.63 mg/kg i.p.): about 40%; decrease of immobility time vs vehicle (immobility time; 1.25 mg/kg i.p.): about 40%; decrease of immobility time vs vehicle (immobility time; 2.5 mg/kg i.p.): about 40%; decrease of immobility time vs vehicle (immobility time; 5 mg/kg i.p.): 26%; Ki (5-HT7R [2]): < 100 nM

Reference: publication PMC11587507, “The Importance of Stereochemistry in 5-HT7R Modulation—A Case Study of Hydantoin Derivatives” (ACS Chemical Neuroscience, 2024)
